Experimental data as given in patent publication US6498254B1, “Antiretroviral compounds and compositions” (Uniroyal Chemical Company, Inc., priority 2001, dated 2002).
In brackets after ≈: the same amount, converted by molar mass. Like-named read-outs stand apart in the source and are kept apart here.

Experiments:
[1] = test system: HIV-2 (ROD); assay: Inhibition of HIV-2 syncytium formation in CEM cells; type: cell-based; settings: for EC50: Human immunodeficiency virus 2, CCRF-CEM, read-out: EC50 (μg/ml) HIV-2; for HIV-2 % Protection: protection of CEM cells against virus-induced cytopathicity at the compound concentration in the previous column
From the text: (§1) The cell type used to determine activity of the compounds of the invention herein, i.e., the test compounds, against HIV was human T-lymphoblast (CEM) cells obtained from the American Tissue Cell Culture Collection (Rockville, Md.). HIV-1 (IIIB) was originally obtained from the culture of persistently HIV-1 infected H9 cells and was provided by R. C. Gallo and M. Popovic (National Cancer Institute, National Institutes of Health, Bethesda, Md.). HIV-2 (ROD) was originally obtained from L. M. Montagnier (Pasteur Institute, Paris, France).
(§2) To determine the antiviral activity of the test compounds, CEM cells were suspended at a cell density of approximately 300,000 cells per ml of culture medium and infected with approximately 100 CClD50 (100 CClD50 being the 50% cell culture infective dose) of HIV-1 (IIIB) or HIV-2 (ROD)). Then 100 μl of the infected cell suspensions was added to 200 μl micro titer plate wells containing 100 μl of appropriate serial (5-fold) dilutions of the test compounds. The inhibitory effect of the test compounds on HIV-1 or HIV-2 syncytium formation in CEM cells was examined microscopically on day four post infection. The 50% effective concentration (EC50) was defined as the test compound concentration that inhibits syncytium formation in the HIV-1 or HIV-2 infected cell cultures by 50%.
(§3) In some cases, the compounds had considerable cytotoxicity to CEM cells which made determination of the EC50 difficult. In these cases, the percent protection of the cells against virus-induced cytopathicity by the test compounds at the indicated compound concentration in the previous column is given.

[2] = test system: CMV Davis strain; assay: Activity against HCMV: virus-induced cytopathicity in HEL cells; type: cell-based, human cytomegalovirus (HCMV); settings: for IC50: read-out: Antiviral IC50 (μg/ml) Davis strain; for Antiviral % Inhibition Davis strain: estimate of percent protection of HEL cells at the compound concentration
Method: Confluent HEL cells grown in […] microtiter plates were inoculated with CMV at an input of 100 PFU (plaque forming units) per well. After a one to two hour incubation period, residual virus was removed and the infected cells were further incubated with MEM (Minimal Essential Medium) (supplemented with 2% inactivated Fetal Calf Serum (FCS), […], and 0.3% sodium bicarbonate) containing varying concentrations of the test compounds. Antiviral activity was expressed as EC50 (50% effective concentration), or test compound concentration required to reduce virus-induced cytopathicity after seven days by 50% compared to the untreated control.
In some cases, the compounds had considerable cytotoxicity against HEL cells, which made determination of the EC50's difficult. In these cases, an estimate of the percent protection at the compound concentration indicated in the previous columns is given.

[3] = test system: HIV-1 (IIIB); assay: Inhibition of HIV-1 syncytium formation in CEM cells; type: cell-based; settings: for EC50: read-out: EC50 (μg/ml) HIV-1; for HIV-1 % Protection: protection of CEM cells against virus-induced cytopathicity at the compound concentration in the previous column
From the text: as §1, §2, §3

[4] = HIV-2 (ROD) infected CEM cells, syncytium formation, day four post infection
[5] = Human betaherpesvirus 5, 168 h, CMV-infected HEL cells, virus-induced cytopathicity after seven days
[6] = Human immunodeficiency virus 1, CCRF-CEM, HIV-1 (IIIB) infected CEM cells, syncytium formation, day four post infection
[7] = Human betaherpesvirus 5, HEL, 168 h
[8] = Human immunodeficiency virus 1, IIIB, CCRF-CEM
[9] = CMV-infected HEL cells, virus-induced cytopathicity after seven days
[10] = HIV-1 (IIIB) infected CEM cells, syncytium formation, day four post infection

Compound	EC50 [1, 4]	IC50 [2, 5]	Antiviral % Inhibition Davis strain [2]	melting point	EC50 [3, 6]	HIV-2 % Protection [1]	HIV-1 % Protection [3]	EC50 [1]	IC50 [2, 7]	EC50 [3, 8]	EC50 (μg/ml) HIV-2 [1, 4]	Antiviral IC50 (μg/ml) Davis strain [2, 9]	EC50 (μg/ml) HIV-1 [3, 10]
O=[N+]([O-])c1cc(CS(=O)(=O)c2cccc[n+]2[O-])ccc1Cl [Compound 64, 2-[[(3-nitro-4-chlorophenyl)methyl]sulfonyl]pyridine-N-oxide]	1.9 µg/mL (≈ 5.78 µM)	> 5 µg/mL	10.0%	168 to 170 °C	1.5 µg/mL (≈ 4.56 µM)	–	–	–	–	–	–	–	–
Cc1ccc(C)c(C(C)S(=O)(=O)c2cccc(Cl)[n+]2[O-])c1 (stereo not shown) [Compound 76, 2-[1-(2,5-dimethylphenyl)ethylsulfonyl]-6-chloropyridine-N-oxide]	2.4 µg/mL (≈ 7.37 µM)	> 9.1 µg/mL	–	197 to 200 °C	0.9 µg/mL (≈ 2.76 µM)	–	–	–	–	–	–	–	–
Cc1ccc(C)c(C(C)S(=O)(=O)c2cc(C)cc(C)[n+]2[O-])c1 (stereo not shown) [Compound 81, 2-[1-(2,5-dimethylphenyl)ethylsulfonyl]-4,6-dimethylpyridine-N-oxide]	> 20 µg/mL	8.6 µg/mL (≈ 26.9 µM)	–	201 to 204 °C	≥ 20 µg/mL	0.0%	37.5%	–	–	–	–	–	–
Cc1ccc(C)c(C(Cl)S(=O)(=O)c2ccccn2)c1 (stereo not shown) [Compound 106, 2[(2,5-dimethylphenyl)chloromethylsulfonyl]pyridine]	> 4 µg/mL	20 µg/mL (≈ 67.6 µM)	–	117 to 119 °C	0.9 µg/mL (≈ 3.04 µM)	0.0%	–	–	–	–	–	–	–
Cc1ccc(C)c(CSc2cccc[n+]2C)c1 [Compound 142, 2[[(2,5-dimethylphenyl)methyl]thio]-1-methylpyridinium chloride]	–	–	–	–	–	0.0%	0.0%	> 4 µg/mL	3.4 µg/mL	> 4 µg/mL	–	–	–
O=[N+]([O-])c1cccnc1SCc1ccccc1 [Compound 146, 2-benzylthio-3-nitropyridine]	–	–	–	–	–	37.5%	–	≥ 20 µg/mL	40 µg/mL (≈ 162 µM)	2.3 µg/mL (≈ 9.34 µM)	–	–	–
Cc1ccc(C)c(CSc2ccccn2)c1 [Compound 148, 2-((2,5-dimethylphenyl)methylthio) pyridine]	–	–	–	–	–	–	–	> 20 µg/mL	0.4 µg/mL (≈ 1.74 µM)	> 20 µg/mL	–	–	–
[O-][n+]1c(Cl)cccc1SCc1ccccc1 [Compound 149, 6-chloro-(2-benzylthio)pyridine-N-oxide]	–	–	–	112 to 115 °C	–	–	–	16 µg/mL (≈ 63.6 µM)	20 µg/mL (≈ 79.4 µM)	9 µg/mL (≈ 35.8 µM)	–	–	–
Cc1ccc(C)c(CS(=O)(=O)c2ccccn2)c1 [Compound 150, 2-(2,5-dimethylbenzylsulfonyl)pyridine]	20 µg/mL (≈ 76.5 µM)	> 50 µg/mL	20.0%	–	3.25 µg/mL (≈ 12.4 µM)	–	–	–	–	–	–	–	–
[O-][n+]1cc(Cl)ccc1SCc1ccccc1 [Compound 151, 5-chloro-2(benzylthio)pyridine-N-oxide]	–	–	20.0%	–	–	0.0%	0.0%	> 20 µg/mL	> 20 µg/mL	> 20 µg/mL	–	–	–
CN1CCCC(CSc2cccc[n+]2[O-])C1 (stereo not shown) [Compound 156, 2-(N-methyl-3-piperidylmethylthio)pyridine-N-oxide]	–	–	0.0%	–	–	0.0%	–	> 100 µg/mL	> 50 µg/mL	16 µg/mL (≈ 67.1 µM)	–	–	–
Cc1ccc(C)c(CSc2ccccn2)c1.Cl [Compound 157, 2-(2,5-dimethylphenylmethylthio)pyridine hydrochloride]	≥ 20 µg/mL	> 50 µg/mL	0.0%	–	6 µg/mL	37.5%	–	–	–	–	–	–	–
N#CC(=Cc1ccccc1)Sc1cccc[n+]1[O-] [Compound 158, 2-(1-cyano-2-phenylethenethio) pyridine-N-oxide]	–	–	–	–	–	0.0%	0.0%	–	–	–	>4 µg/mL	3.6 µg/mL	>4 µg/mL
COc1ccc(C=C(C#N)Sc2cccc[n+]2[O-])cc1 [Compound 159, 2-[1-cyano-2-(p-methoxyphenyl)ethenethio]pyridine-N-oxide]	–	–	–	–	–	25.0%	0.0%	> 20 µg/mL	10 µg/mL (≈ 35.2 µM)	> 20 µg/mL	–	–	–
COc1cc(C=C(C#N)Sc2cccc[n+]2[O-])cc(OC)c1OC [Compound 160, 2-[1-cyano-2-(3,4,5-trimethoxyphenyl)ethenethio]pyridine-N-oxide]	–	–	–	–	–	0.0%	0.0%	> 20 µg/mL	7 µg/mL (≈ 20.3 µM)	> 20 µg/mL	–	–	–
Cc1ccc(C)c(C(C)S(=O)(=O)c2ccccn2)c1 (stereo not shown) [Compound 161, 2-[1-(2,5-dimethylphenyl)ethylsulfonyl]pyridine]	> 100 µg/mL	38 µg/mL (≈ 138 µM)	–	–	9.5 µg/mL (≈ 34.5 µM)	0.0%	–	–	–	–	–	–	–
Cc1ccc(C)c(C(C)Sc2cc(C)c3ccccc3n2)c1 (stereo not shown) [Compound 162, 2-[[1-(2,5-dimethylphenyl)ethyl]thio]-4-methylquinoline]	–	–	–	84 to 85 °C	–	0.0%	0.0%	> 0.16 µg/mL	1.6 µg/mL (≈ 5.2 µM)	> 0.8 µg/mL	–	–	–
ethyl-N-[4-(pyridyl-N-oxide-2-sulfonylmethyl)phenylcarbonyl]carbamate [Compound 60]	–	–	0.0%	–	–	–	–	–	–	–	17.0 µg/mL	>50 µg/mL	40.00 µg/mL
